According to publication PMC9611977 (Toxins, 2022):
Bridge positions count the residues as written; N and C are the ends. Ends that are not written are not given here.

Experiments:
muscle α1β1δε nAChR = test system: muscle α1β1δε nAChR; set-up: method as in PMID 16571968; conditions: read-out: EC50 of ACh for α1β1δε; cited from earlier work
rat ASIC3 = molecular target: T1, rat ASIC3 (Rattus norvegicus, UniProt O35240); test: two-electrode voltage clamp on rASIC3 expressed in X. laevis oocytes; format: cell-based
T1 construct: expressed in transfected cells; host or cells: Xenopus laevis oocytes (cRNA injection)
T1 sequence (O35240 1-533): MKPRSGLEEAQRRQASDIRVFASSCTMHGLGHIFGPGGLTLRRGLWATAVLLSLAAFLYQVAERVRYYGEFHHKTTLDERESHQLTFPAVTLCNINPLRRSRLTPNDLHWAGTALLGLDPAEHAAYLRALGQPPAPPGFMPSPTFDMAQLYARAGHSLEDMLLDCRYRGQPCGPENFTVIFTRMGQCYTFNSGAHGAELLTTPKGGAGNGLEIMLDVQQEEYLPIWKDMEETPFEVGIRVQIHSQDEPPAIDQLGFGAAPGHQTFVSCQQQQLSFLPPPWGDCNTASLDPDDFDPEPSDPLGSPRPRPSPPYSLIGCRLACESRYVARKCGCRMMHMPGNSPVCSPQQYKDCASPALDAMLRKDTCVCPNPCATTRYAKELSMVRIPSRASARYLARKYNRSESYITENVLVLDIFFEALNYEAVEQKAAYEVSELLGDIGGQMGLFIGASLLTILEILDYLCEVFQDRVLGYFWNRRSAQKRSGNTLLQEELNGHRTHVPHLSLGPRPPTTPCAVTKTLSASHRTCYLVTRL
Procedure: (§1) Rat ASIC1a and ASIC3 channels were expressed in X. laevis oocytes after injection of 2.5–10 ng of cRNA, as previously described. After injection oocytes were kept for 2–3 days at 19 °C and then up to 5 days at the temperature of 15–16 °C in sterile ND96 medium (96 mM NaCl, 2 mM KCl, 1.8 mM CaCl2, 1 mM MgCl2, 5 mM HEPES titrated to pH 7.4 with NaOH supplemented with 50 μg/mL of gentamycin). Two-electrode voltage clamp recordings were performed using GeneClamp 500 amplifier (Axon Instruments, Burlingame, CA, USA). The data were filtered at 50 Hz and digitized at 1000 Hz by an AD converter L780 (LCard, Moscow, Russia) using in-house software (Moscow). The solutions were applied to a cell chamber (volume 50 μL). The laminar flow of an external solution of ND96 (pH 7.4) was used at a rate of 1 mL/min. ASIC1a and ASIC3 were activated by a short (1 s) application of a solution with a pH 5.5 (10 mM MES) using a fast application system. Peptides were applied 15 s before the activation pulse in a solution containing 0.1% BSA. A value of currents inhibition was calculated as the ratio of the peak current amplitude, when the peptide was applied to the average amplitude of the control peak currents before and after the peptide application and expressed as a percentage. To construct the concentration-response curves, a logistic equation was the following: y = ((1 − A)/(1 + ([C]/IC50)^nH)) + A; where y is the relative value of current inhibition; C is the peptide concentration; IC50 is the half maximal inhibitory concentration; nH is the Hill coefficient; A is an amplitude of maximum inhibition (% of control).

rat ASIC1a = test: two-electrode voltage clamp on rASIC1a expressed in X. laevis oocytes; format: cell-based; conditions: maximal applied concentration 100 μM; pH drop 7.4 to 5.5
Procedure: as §1, with “To construct the concentration-response curves, a logistic equation was the following: y = ((1 − A)/(1 + ([C]/IC50)^nH)) + A; where y is the relative value of current inhibition; C is the peptide concentration; IC50 is the half maximal inhibitory concentration; nH is the Hill coefficient; A is an amplitude of maximum inhibition (% of control).” left out

Molecule | EC50 (muscle α1β1δε nAChR) | IC50 (rat ASIC3) | maximal inhibitory effect on rASIC3 acid-induced current (rat ASIC3; 100 μM peptide, pH drop 7.4 to 5.5) | Hill coefficient nH, rASIC3 inhibition (rat ASIC3; logistic fit, n = 5) | Iminimal, rASIC3 concentration-response fit (rat ASIC3; logistic fit, n = 5, amplitude of maximum inhibition (% of control)) | inhibition of rASIC1a current (rat ASIC1a)
CC(=O)OCC[N+](C)(C)C [ACh, acetylcholine] | ~5 µM | – | – | – | – | –
GTPCKCLGYTGVYWFMITRCPNGHGYNLSCPYFLGVCCVKK (disulfide 4-37, 6-30, 20-38) [Hmg 1b-5] | – | 13.8 ± 0.6 µM | about 78% | 1.22 ± 0.04 | 22.4 ± 1.3 | 17%
